Results: PMC7747594, “Protease-activated receptor-2 ligands reveal orthosteric and allosteric mechanisms of receptor inhibition” (Communications Biology, 2020)

How the values were obtained:
PAR1 (F2R) = target: T1, PAR1 (F2R) (Homo sapiens, UniProt P25116); test: β-arrestin recruitment, DiscoverX profiling service, PAR1; format: cell-based
T1 sequence (P25116 22-425): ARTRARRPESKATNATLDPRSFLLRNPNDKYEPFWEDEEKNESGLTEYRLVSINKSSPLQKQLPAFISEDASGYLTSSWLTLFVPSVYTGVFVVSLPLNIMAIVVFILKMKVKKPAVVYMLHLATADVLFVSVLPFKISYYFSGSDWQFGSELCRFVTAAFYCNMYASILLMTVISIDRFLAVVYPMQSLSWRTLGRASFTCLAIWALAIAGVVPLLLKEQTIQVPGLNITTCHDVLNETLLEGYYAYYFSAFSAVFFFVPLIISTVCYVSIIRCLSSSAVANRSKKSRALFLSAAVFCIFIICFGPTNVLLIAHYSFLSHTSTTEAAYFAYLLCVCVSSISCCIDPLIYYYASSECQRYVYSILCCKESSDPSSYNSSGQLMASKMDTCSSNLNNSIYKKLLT

[1] = test system: PAR2 stabilised receptor (StaR); test: Surface plasmon resonance (SPR) binding, single-cycle kinetics
Experimental: (§1) The SPR binding experiments were performed on a Biacore S200 optical biosensor unit (GE Healthcare) at 30 °C. Sensor chips Series S NTA (Research grade, GE Healthcare) were equilibrated at room temperature prior to use. The running buffer for protein tethering and subsequent ligand binding experiments was 50 mM HEPES, 250 mM NaCl, 0.1% (w/v) LMNG, 0.005% (w/v) CHS, 0.025% (w/v) CHAPS, pH 7.4, if not stated otherwise. The tethering of PAR2 was performed at a flow rate of 5 µl min^−1. The NTA surface was chosen to allow full control of the steric orientation of the tethered protein and was conditioned by a one-minute injection of a 350 mM EDTA solution (pH 8.3) followed by a one-minute injection of running buffer supplemented with 0.5 mM NiCl2. To allow for a covalent tethering after the initial capture step, the conditioned surface was activated for 7 min with 50 mM NHS and 200 mM EDC. This was immediately followed by an injection of PAR2 in running buffer at a concentration of 80–120 µg ml^−1 with a contact time of 5–10 min to achieve the desired densities of 8000–9000 RU. […] Reference surfaces were prepared accordingly, omitting the injection of protein over the activated reference surface. The subsequent binding experiments were all performed at a flow rate of 30 µl min^−1 and by employing the method of single-cycle kinetics. This approach involves the sequential injection of a compound concentration series without regeneration steps. A contact time of 60 s was selected, which was followed by a 30 min dissociation phase to allow for a proper estimation of the dissociation rate constant. Compounds were dissolved in DMSO to 10 mM and a digital dispenser HP D300 (Tecan) was used to set up the compound concentration series using 8 concentrations with a 2-fold dilution pattern. […] Prior to the analysis of compound binding, three running buffer blanks were injected to equilibrate the instrument. The data collection rate was set to 10 Hz and all experiments were repeated at least four times to allow for error estimations. Due to the low DMSO mismatch (maximum 0.1%) introduced by the compound addition, no solvent correction was required. To evaluate compound binding to the PAR-AZ8838 complex, the antagonist AZ8838 was supplemented into the running buffer at a concentration of 50 µM and the instrument was equilibrated for 1 h before performing the single-cycle kinetic study as described above. Similarly, binding of AZ2429 to the PAR-AZ3451 complex was investigated after addition of 1 µM AZ3451 to the running buffer followed by 1 h equilibrium period, while the addition of 10 µM AZ2429 to the running buffer was required to ensure >99% saturation for single-cycle kinetic study of AZ3451 binding to the PAR2-AZ2429 complex.
(§2) Prior to the fitting of the data, the reference-subtracted data was further analysed by subtracting a similar single-cycle kinetic experiment containing only buffer injections in order to correct for injection artefacts, systematic noise and instrument drift. This double-referenced data has been fitted using a simple 1:1 interaction model as described by Karlsson et al.[46] in order to extract kinetic and affinity data. All data were expressed as mean ± s.e.m. and further analysed using GraphPad Prism 8. Statistical differences were assessed using student’s t-tests (two-tailed) for data sets of two and one-way ANOVA for data sets of three. Significance was set at ^+p < 0.05, ^++p < 0.01, ^+++p < 0.001, ^++++p < 0.0001 compared to AZ3451, and *p < 0.05, **p < 0.01, ***p < 0.001, ****p < 0.0001 compared to AZ2429.

hPAR2 = target: T2, hPAR2 (Homo sapiens, UniProt P55085); test: IP1 assay, agonist mode, 1321N1-hPAR2 cells; format: cell-based
T2 sequence (P55085 26-397): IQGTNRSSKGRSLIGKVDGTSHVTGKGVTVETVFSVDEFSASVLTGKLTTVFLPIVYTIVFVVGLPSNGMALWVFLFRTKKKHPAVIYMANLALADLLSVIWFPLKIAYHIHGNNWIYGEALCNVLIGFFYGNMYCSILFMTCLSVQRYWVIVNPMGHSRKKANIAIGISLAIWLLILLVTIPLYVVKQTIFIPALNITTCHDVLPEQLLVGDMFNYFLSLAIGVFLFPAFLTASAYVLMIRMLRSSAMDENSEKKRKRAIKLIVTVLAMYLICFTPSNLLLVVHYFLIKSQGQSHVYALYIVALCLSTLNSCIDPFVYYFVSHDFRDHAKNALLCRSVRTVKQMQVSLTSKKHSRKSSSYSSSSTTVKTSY

[2] = target: T3, PAR2 stabilised receptor (StaR) (Homo sapiens, UniProt P55085); test: Surface plasmon resonance (SPR) binding, single-cycle kinetics
T3 sequence (P55085 55-377): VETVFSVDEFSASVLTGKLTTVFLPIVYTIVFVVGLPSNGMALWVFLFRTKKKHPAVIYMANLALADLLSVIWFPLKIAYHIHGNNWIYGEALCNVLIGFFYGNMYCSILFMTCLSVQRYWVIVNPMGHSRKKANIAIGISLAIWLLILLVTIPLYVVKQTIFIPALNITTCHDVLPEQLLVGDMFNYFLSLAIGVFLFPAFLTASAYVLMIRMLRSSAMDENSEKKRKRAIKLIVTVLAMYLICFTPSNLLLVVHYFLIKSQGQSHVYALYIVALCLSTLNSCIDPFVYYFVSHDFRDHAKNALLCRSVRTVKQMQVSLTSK
Experimental: as §1, §2

Row | SMILES | Max Response (PAR1 (F2R); Arrestin, Agonist format, F2R) [%] | EC50 (PAR1 (F2R); Arrestin, Agonist format, F2R, read-out: RC50 (EC50)) [µM] | Max Response (PAR1 (F2R); Arrestin, Antagonist format, F2R) [%] | IC50 (PAR1 (F2R); Arrestin, Antagonist format, F2R, read-out: RC50 (IC50)) [µM] | activity against PAR1 in β-arrestin-2 recruitment assay (PAR1 (F2R); DiscoverX profiling service) | association kinetics slower than AZ3451 ([1]; SPR) | dissociation rate decreased relative to AZ3451 ([1]; SPR) [fold] | weaker affinity than AZ3451 ([1]; SPR) [fold] | ka ([1]; apo-PAR2, 30 °C) | pKD ([1]; apo-PAR2, 30 °C) | residence time ([1]; apo-PAR2, 30 °C) | more potent than SLIGKV-NH2, IP1 accumulation (hPAR2; 1321N1-hPAR2) [fold] | EC50 (hPAR2; 1321N1-hPAR2 cells, mean ± s.e.m., read-out: IP1 pEC50 (converted)) [nM] | reduction in affinity in presence of saturating AZ8838 ([2]; SPR) [fold] | residence time ([2]; SPR, apo-PAR2) | ka ([2]; apo-PAR2, 30 °C) | pKD ([2]; apo-PAR2, 30 °C) | residence time ([2]; apo-PAR2, 30 °C)
1 | CNC(=O)[C@H]1CC[C@@H](NC(=O)[C@H](CC2CCCCC2)NC(=O)c2cn(Cc3ccccc3)nn2)c2ccccc21 [AZ2429] | 0 | > 50 | 0 | > 50 | No AZ2429 activity was detected | around 100 fold | 5 | 10 | 1.5 ± 0.1 × 10^4 (n = 4) M^−1 s^−1 | 6.89 ± 0.03 (n = 4) | 523 ± 50 (n = 4) s | 120 | 200 | – | – | – | – | –
2 | C[C@@H](C1CCCCC1)n1c(-c2cc3c(cc2Br)OCO3)nc2cc(C(=O)Nc3ccc(C#N)cc3)ccc21 [AZ3451] | – | – | – | – | – | – | – | – | – | – | – | – | – | 3 | about 2 min | 1.1 ± 0.6 × 10^6 (n = 4) M^−1 s^−1 | 7.96 ± 0.04 (n = 4) | 116 ± 68 (n = 4) s
